Data: patent US6710048B2, “Pyrazine derivatives as modulators of tyrosine kinases” (Ortho-McNeil Pharmaceutical, Inc., priority 2000, dated 2004)

Assays:
[1] = biological target: T1, Casein Kinase 1 (Rattus norvegicus, UniProt Q06486); assay: Casein Kinase 1 selectivity assay; type: biochemical; details: Table 4 kinase selectivity; read-out: IC50, Assay 8 Casein Kinase 1
T1 construct: a truncation at amino acid 318 of the C-terminal portion of the rat CK1 delta isoform produced in E.coli; purchased New England Biolabs 6030; host or cells: E. coli
T1 sequence (Q06486 1-317 limits assumed): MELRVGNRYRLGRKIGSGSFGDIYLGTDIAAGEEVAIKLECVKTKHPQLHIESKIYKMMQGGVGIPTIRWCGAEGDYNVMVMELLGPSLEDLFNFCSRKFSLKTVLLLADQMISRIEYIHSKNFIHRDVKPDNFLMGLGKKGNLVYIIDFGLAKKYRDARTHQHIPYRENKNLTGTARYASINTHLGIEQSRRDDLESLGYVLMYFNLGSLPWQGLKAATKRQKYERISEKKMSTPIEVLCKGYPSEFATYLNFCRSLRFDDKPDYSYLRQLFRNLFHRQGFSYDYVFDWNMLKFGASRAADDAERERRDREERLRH
Experimental: Assays to test compound inhibition of other kinases were preformed using methods that measure the amount of phosphorylation of a biotinylated peptide substrate. Biotinylated peptide substrates were selected from the literature as appropriate for the enzyme being evaluated. […] Assay conditions vary slightly for each protein kinase, for example, insulin receptor kinase requires 10 mM MnCl2 for activity and Calmodulin-dependent protein kinase requires calmodulin and 2 mM CaCl2. The reaction mixture was dispensed into the wells of a streptavidin coated Flashplate and 1 μl drug stock in 100% DMSO was added to a 100 μl reaction volume resulting in a final concentration of 1% DMSO in the reaction. Enzyme was diluted in 50 mM Tris-HCl pH=8.0, 0.1% BSA and added to each well. The reaction was incubated for one hour at 30° C. in the presence of compound. After one hour the reaction mix was aspirated from the plate and the plate was washed with PBS containing 100 mM EDTA. The plate was read on a scintillation counter to determine ^33P-γ-ATP incorporated into the immobilized peptide. Test compounds were assayed in duplicate at 8 concentrations [100 tM, 10 μM, 1 μM, 100 nM, 10 nM, 1 nM, 100 μM, 10 μM]. A maximum and minimum signal for the assay was determined on each plate. The IC50 was calculated from the dose response curve of the percent inhibition of the maximum signal in the assay according to the formula [max signal−background/test compound signal−background (100)=% inhibition] by graphing the percent inhibition against the log concentration of test compound. Known inhibitor compounds appropriate for the kinase being assayed were also included on each plate.
VEGF-R (vascular endothelial growth factor receptor-2) is a fusion protein containing a polyhistidine tag at the N-terminus followed by amino acids 786-1343 of the rat VEGF-R2 kinase domain (GenBank Accession #U93306). CDK1 (cyclin dependent kinase 1) is isolated from insect cells expressing both the human CDK1 catalytic subunit and its positive regulatory subunit cyclin B (New England Biolabs, Beverly, Mass., Cat. #6020). CDK4 (cyclin dependent kinase 4) contains amino acids 769 to 921 of the mouse […] protein found in the GST-retinoblastoma protein construct (Santa Cruz Biotechnology, Santa Cruz, Calif.; Cat. #SC-4112). Insulin Receptor Kinase consists of residues 941-1313 of the cytoplasmic domain of the beta-subunit of the human insulin receptor (BIOMOL, Plymouth Meeting, Pa., Cat. #SE-195). Protein Kinase A is the catalytic subunit of cAMP dependent protein kinase-A purified from bovine heart (Upstate Biotech, Lake Placid, N.Y., Cat#14-114). PKC (protein kinase-C) is the gamma or beta isoform of the human protein produced in insect cells (BIOMOL, Plymouth Meeting, Pa., Cat. #SE-143). Casein Kinase 1 is a truncation at amino acid 318 of the C-terminal portion of the rat CK1 delta isoform produced in E.coli (New England Biolabs, Beverly, Mass., Cat. #6030). Casein Kinase 2 includes the alpha and beta subunits of the human CK2 protein produced in E.coli (New England Biolabs, Beverly, Mass., Cat. #6010). Calmodulin Kinase (calmodulin-dependent protein kinase 2) is a truncated version of the alpha subunit of the rat protein produced in insect cells (New England Biolabs, Beverly, Mass., Cat. #6060). Glycogen Synthase Kinase-3 is the beta isoform of the rabbit enzyme produced in E. coli (New England Biolabs, Beverly, Mass., Cat. #6040). MAP Kinase is the rat ERK-2 isoform containing a polyhistidine tag at the N-terminus produced in E. coli. and activated by phosphorylation with MEK1 prior to purification (BIOMOL, Plymouth Meeting, Pa., Cat. #SE-137). EGFR (epidermal growth factor receptor) is purified from human A431 cell membranes (Sigma, St. Louis, Mo., Cat.# E3641). PDGF-R (platelet derived growth factor receptor) is a fusion protein containing a polyhistidine tag at the N-terminus followed by nucleotides 1874-3507 of the human PDGF-R beta subunit kinase domain (Accession #M21616). […]

[2] = biological target: FGF-R2 (Homo sapiens, UniProt P21802); assay: FGF-R2 kinase selectivity assay; type: biochemical; details: Table 4 kinase selectivity; read-out: IC50, Assay 15 FGF-R2
Sequence of FGF-R2 (P21802 22-821, species assumed): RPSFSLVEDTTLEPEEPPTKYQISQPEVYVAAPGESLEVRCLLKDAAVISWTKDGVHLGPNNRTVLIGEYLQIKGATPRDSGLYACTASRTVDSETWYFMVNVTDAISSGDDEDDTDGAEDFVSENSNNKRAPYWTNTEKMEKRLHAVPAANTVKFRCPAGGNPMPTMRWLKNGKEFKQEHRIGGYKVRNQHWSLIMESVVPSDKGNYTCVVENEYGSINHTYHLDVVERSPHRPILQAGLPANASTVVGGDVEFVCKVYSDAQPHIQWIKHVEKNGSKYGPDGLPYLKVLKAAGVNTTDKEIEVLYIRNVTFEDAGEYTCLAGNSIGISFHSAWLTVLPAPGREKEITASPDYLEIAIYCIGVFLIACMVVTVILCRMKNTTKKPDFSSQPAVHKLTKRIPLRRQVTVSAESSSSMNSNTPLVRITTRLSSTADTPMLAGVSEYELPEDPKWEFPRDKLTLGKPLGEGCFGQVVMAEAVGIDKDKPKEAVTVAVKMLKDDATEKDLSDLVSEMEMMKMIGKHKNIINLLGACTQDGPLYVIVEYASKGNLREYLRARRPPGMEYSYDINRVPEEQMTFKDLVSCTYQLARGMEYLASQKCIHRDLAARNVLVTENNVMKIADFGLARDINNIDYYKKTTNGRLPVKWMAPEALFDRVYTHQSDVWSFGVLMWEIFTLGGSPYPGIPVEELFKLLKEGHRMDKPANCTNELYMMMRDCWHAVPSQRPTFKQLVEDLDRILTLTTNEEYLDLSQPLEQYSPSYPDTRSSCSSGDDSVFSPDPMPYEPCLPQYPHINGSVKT
Experimental: Assays to test compound inhibition of other kinases were preformed using methods that measure the amount of phosphorylation of a biotinylated peptide substrate. Biotinylated peptide substrates were selected from the literature as appropriate for the enzyme being evaluated. The general procedure used to assay for kinase activity is as follows: A kinase reaction mix was prepared in 50 mM Tris-HCl pH=8, 10 mM MgCl2, 0.1 mM NaVO4, 1 mM DTT, 5-10 μM ATP, 0.25-1 μM biotinylated peptide substrate, 0.2-0.8 μCuries per well ^33P-γ-ATP [2000-3000 Ci/mmol]. Assay conditions vary slightly for each protein kinase, for example, insulin receptor kinase requires 10 mM MnCl2 for activity and Calmodulin-dependent protein kinase requires calmodulin and 2 mM CaCl2. The reaction mixture was dispensed into the wells of a streptavidin coated Flashplate and 1 μl drug stock in 100% DMSO was added to a 100 μl reaction volume resulting in a final concentration of 1% DMSO in the reaction. Enzyme was diluted in 50 mM Tris-HCl pH=8.0, 0.1% BSA and added to each well. The reaction was incubated for one hour at 30° C. in the presence of compound. After one hour the reaction mix was aspirated from the plate and the plate was washed with PBS containing 100 mM EDTA. The plate was read on a scintillation counter to determine ^33P-γ-ATP incorporated into the immobilized peptide. Test compounds were assayed in duplicate at 8 concentrations [100 tM, 10 μM, 1 μM, 100 nM, 10 nM, 1 nM, 100 μM, 10 μM]. A maximum and minimum signal for the assay was determined on each plate. The IC50 was calculated from the dose response curve of the percent inhibition of the maximum signal in the assay according to the formula [max signal−background/test compound signal−background (100)=% inhibition] by graphing the percent inhibition against the log concentration of test compound. Known inhibitor compounds appropriate for the kinase being assayed were also included on each plate.

Row | IC50 [1] | IC50 [2] | Compound
1 | 6500 nM | 153 nM | Clc1cccc(Nc2cncc(-c3cncc(NCCCn4cncn4)c3)n2)c1 [Cmd 76]
2 | > 100000 nM | 1400 nM | CN(C)CCNc1cncc(-c2cncc(Nc3cccc(Cl)c3)n2)c1 [Cmd 33, N′-[5-[6-[(3-chlorophenyl)amino]pyrazinyl]-3-pyridinyl]-N^2,N^2-dimethyl-1,2-ethanediamine]
3 | – | 2360 nM | OCCCCNc1cncc(-c2cncc(Nc3cccc(Cl)c3)n2)c1 [Cmd 32]
4 | > 100000 nM | 317 nM | Clc1cccc(Nc2cncc(-c3cncc(NCCCc4ccncc4)c3)n2)c1 [Cmd 71]
5 | > 100000 nM | 293 nM | Clc1cccc(Nc2cncc(-c3cncc(NCCCc4cccnc4)c3)n2)c1 [Cmd 72]
6 | 5030 nM | 276 nM | Clc1cccc(Nc2cncc(-c3cncc(NCCCN4CCCCC4)c3)n2)c1 [Cmd 73]
7 | 5600 nM | 326 nM | Clc1cccc(Nc2cncc(-c3cncc(NCCCn4cccn4)c3)n2)c1 [Cmd 75]
8 | > 100000 nM | 207 nM | OCCCNc1cncc(-c2cncc(Nc3cccc(Cl)c3)n2)c1 [Cmd 4]

Row | Compound | IC50 [1] | IC50 [2]
9 | O=C(NCCCO)c1cncc(-c2cncc(Nc3cccc(Cl)c3)n2)c1 [Cmd 39] | > 100000 nM | 1800 nM
10 | CN(C)CCCNc1cncc(-c2cncc(Nc3cccc(Cl)c3)n2)c1 [Cmd 35] | > 100000 nM | 3070 nM
